Reference: patent US20140065119A1, “METHODS AND COMPOSITIONS COMPRISING CYCLIC ANALOGUES OF HISTATIN 5 FOR TREATING WOUNDS” (THE UNIVERSITY OF WESTERN ONTARIO, priority 2010, published 2014)
Positions of bridges follow the written chain, without caps; N, C: chain ends. Residues, ends and D or L forms follow the SMILES beside them.

Key:
[1] = tested on: Primary human neonatal foreskin epithelial cells; assay: Toxicity in primary cells, phase contrast morphology; type: cell-based
Protocol: (§1) Toxicological studies of DB2121 in human cells were also undertaken. Primary human neonatal foreskin epithelial cells were used to examine DB2121 toxicity, using a method as described in Min et al. 2004. Nat Biotechnol 22:717-23, the contents of which are incorporated herein by reference. Briefly, when the cells were in log phase, (A) 50 μM DB2121, B) 50 μM Histatin H5, (C) 50 μM ketoconazole, or (D) DMSO was added to the culture medium. At 18 and 36 hours following addition of compound, the foreskin epithelial cells were imaged using phase contract microscopy at 20× magnification. Immediately following the image analysis, proteins were extracted, separated on SDS-PAGE gels, Western blotted, and probed for phosphorylated and non-phosphorylated ERK 1, 2 to monitor cell spreading/migration and/or proliferation of the foreskin keratinocytes. The experiments was repeated three times.

phosphorylated ERK 1, 2 = assay: Western blot for phosphorylated ERK 1, 2 in primary cells; type: cell-based, human; settings: 50 μM, primary cell lysates
Protocol: as §1
It was then investigated whether or not these phenotypes were reflected at the molecular level. The primary cells were lysed and monitored for a marker of proliferation namely, phosphorylated ERK 1, 2.

[2] = Tolerability in mice, intra-peritoneal injection; type: in vivo
Protocol: (§2) In addition, mice were able to withstand a concentration of 15 mg/kg of DB2121 when injected via an intra-peritoneal route. When injected into adult rats, a concentration of up to and including 1.5 mg/kg caused no harm when injected intra-venously.

[3] = tested on: primary human foreskin epithelial cell culture; assay: Viable cell number (trypan exclusion) in primary cell culture; type: cell-based; settings: various concentrations, 0, 36 and 72 hours; vs 50 μM ketoconazole; FIG. 3
Protocol: To determine range of non-toxic concentrations of DB2121, various concentrations of DB2121, 50 μM ketoconazole or DMSO as a control were separately added to primary human foreskin epithelial cell culture. At 0, 36 and 72 hours after addition, the epithelial cells were titrated off the culture plate and the viable cell number was determined. The experiment was performed in triplicate. At 72 hours, the foreskin epithelial cells exposed to the various compounds were imaged at 20× magnification using phase contrast microscopy. For cell counting, the epithelial cells were stained with trypan exclusion stain to monitor cell viability.

[4] = Tolerability in adult rats, intra-venous injection; type: in vivo
Protocol: as §2

[5] = Stability in human saliva in vitro by mass spectrometry; type: in vitro ADME; settings: 1 uM, 37° C.
Protocol: DB2121 cyclic analogue was determined to be stable in vitro in human saliva for at least 72 hours as determined by mass spectrometry. The cyclic analogue was incubated in human saliva at a concentration of 1 uM and at a temperature of 37° C. in vitro. At various time points from 0 to 72 hours, 1.0 ul aliquots were taken and injected directly into a Micromass Quattro Micro mass spectrometer. Data was collected for a total of 3 minutes. The data was then processed using Mass Lynx 4.0 Analysis software.
The expected average mass of the cyclic histatin analogue in its active form is expected to be 2557.93. […] The peaks within an acceptable error of approximately 1 mass unit corresponding to cyclic histatin analogue were 2556.95 at 0 hours, 2557.65 at 24 hours, and 2557.10 at 72 hours incubation.

CC(=O)N1CCN(c2ccc(OCC3COC(Cn4ccnc4)(c4ccc(Cl)cc4Cl)O3)cc2)CC1 (centres unmarked) [ketoconazole, Ketoconazole, reference compound]
cell morphology ([1]; 50 μM, 18 and 36 hours, phase contrast 20×): morphologically normal except when treated with ketoconazole | ERK 1, 2 activation (phosphorylated ERK 1, 2) vs control (phosphorylated ERK 1, 2): Significant inhibition of ERK 1, 2 activation

N=C(N)NCCC[C@H](NC(=O)[C@H](Cc1c[nH]cn1)NC(=O)[C@@H]1CSSC[C@H](NC(=O)[C@H](Cc2c[nH]cn2)NC(=O)[C@H](Cc2c[nH]cn2)NC(=O)[C@@H](N)CCCNC(=N)N)C(=O)N[C@@H](Cc2ccc(O)cc2)C(=O)N[C@@H](CCCCN)C(=O)N[C@@H](CCCNC(=N)N)C(=O)N[C@@H](CCCCN)C(=O)N[C@@H](Cc2ccccc2)C(=O)N[C@@H](Cc2c[nH]cn2)C(=O)N[C@@H](CCC(=O)O)C(=O)N[C@@H](CCCCN)C(=O)N[C@@H](Cc2c[nH]cn2)C(=O)N[C@@H](Cc2c[nH]cn2)C(=O)N1)C(=O)NCC(=O)N[C@@H](Cc1ccc(O)cc1)C(=O)O [DB2121, N-RHHCYKRKFHEKHHCHRGY-C] (H-RHHCYKRKFHEKHHCHRGY-OH; disulfide 4-15; N-terminus and C-terminus assumed)
concentration (dose) mice were able to withstand [2]: 15 mg/kg | toxicity to human primary cells ([1]; working concentrations of 50 μM, conclusion from morphology and ERK studies): non-toxic | ERK 1, 2 activation (phosphorylated ERK 1, 2) vs control (phosphorylated ERK 1, 2): not suppressed | toxicity in primary cultured cells (viable cell number) [3]: minimal toxicity | concentration (dose) that caused no harm [4]: ≤ 1.5 mg/kg | time stable in human saliva [5]: at least 72 hours
